Columns and labels:
ASPC-1 = experiment: 14C-fucose binding to cells
Experimental: (§1) Binding of fucose (fucose refers to L-fucose, unless otherwise stated) to the fucosylated sugar chain high-producing cell line ASPC-1 and fucosylated sugar chain low-producing cell line PANC-1 was investigated using radiolabeled fucose.
(§2) In a 12-well culture plate, 1×10^5 cells were seeded and cultured overnight, and ^14C-fucose (specific activity: 55 mCi/mmol) diluted with BSA-PBS at a concentration of 0-200 nM was added to the cells and cultured at 4° C. for 1 hr. The cells were washed with cold BSA-PBS, lysed by 1% Triton X100/PBS-0.25% trypsin, and the radioactivity of the ^14C-fucose bound to the cell membrane was measured (FIGS. 3 and 4).
In another experiment, in a 12-well culture plate, 2×10^5 cells were seeded and cultured overnight, 10 nmol of ^14C-fucose (specific activity: 55 mCi/mmol) were added to the cells either singly or together with 1 pmol of fucose, and cultured at 4° C. for 1, 3, or 24 hr. The cells under each condition were washed with cold BSA-PBS, lysed by 1% Triton X100/PBS-0.25% trypsin, and the radioactivity of the ^14C-fucose was measured (FIG. 5).

PANC-1 = experiment: 14C-fucose binding to cells; details: 14C-fucose 0-200 nM, 4° C., 1 hr
Experimental: as §1, §2

## C[C@H](O)[C@@H](O)[C@@H](O)[C@H](O)C=O [fucose, L-fucose]
ASPC-1; 10 nmol 14C-fucose with non-labeled fucose, 4° C., 1, 3 or 24 hr
  binding of 14C-fucose in competition with excessive non-labeled fucose: inhibited
ASPC-1; 14C-fucose 0-200 nM, 4° C., 1 hr, compared with PANC-1
  binding of fucose to cells (affinity): affinity is higher
PANC-1
  binding of fucose to cells: binds to ASPC-1 and PANC-1 via a receptor-like mechanism
